Laboratory results taken from PMC8344252, “Carbonic anhydrase activation profile of indole-based derivatives” (Journal of Enzyme Inhibition and Medicinal Chemistry, 2021).

How the values were obtained:
[1] = target: hCA VII (Homo sapiens, UniProt P43166); experiment: CA activation, stopped-flow CO2 hydrase assay; format: biochemical; settings: activation constant; mean from 3 assays, errors ±5–10%
Experimental: (§1) A stopped-flow method[38] has been used for assaying the CA catalysed CO2 hydration activity with Phenol red as indicator, working at the absorbance maximum of 557 nm, following the initial rates of the CA-catalysed CO2 hydration reaction for 10–100 s. For each activator, at least six traces of the initial 5–10% of the reaction have been used for determining the initial velocity. The uncatalyzed rates were determined in the same manner and subtracted from the total observed rates. Stock solutions of activator (0.1 mM) were prepared in distilled-deionized water and dilutions up to 0.1 nM were done thereafter with the assay buffer. The activation constant (KA), defined similarly with the inhibition constant (KI), was obtained by considering the classical Michaelis–Menten equation (Equation (3), which has been fitted by nonlinear least squares by using PRISM 3: v=vmax/{1+KM/[S](1+[A]f/KA)} (3) [drawing 4] where [A]f is the free concentration of activator.
(§2) Working at substrate concentrations considerably lower than KM ([S]≪KM), and considering that [A]f can be represented in the form of the total concentration of the enzyme ([E]t) and activator ([A]t), the obtained competitive steady-state equation for determining the activation constant is given by Equation 4: v=v0KA/{KA+[A]t–0.5{([A]t+[E]t+ KA)–([A]t+[E]t+ KA)^2–4[A]t[E]t^1/2}} (4) [drawing 5] where v0 represents the initial velocity of the enzyme-catalysed reaction in the absence of an activator[39–42]. Enzyme concentrations in the assay system were in the range of 6.5–12.0 nM.

[2] = target: hCA I (Homo sapiens, UniProt P00915); experiment: CA activation, stopped-flow CO2 hydrase assay; format: biochemical; settings: activation constant; mean from 3 assays, errors ±5–10%
Chain of hCA I (P00915 whole entry): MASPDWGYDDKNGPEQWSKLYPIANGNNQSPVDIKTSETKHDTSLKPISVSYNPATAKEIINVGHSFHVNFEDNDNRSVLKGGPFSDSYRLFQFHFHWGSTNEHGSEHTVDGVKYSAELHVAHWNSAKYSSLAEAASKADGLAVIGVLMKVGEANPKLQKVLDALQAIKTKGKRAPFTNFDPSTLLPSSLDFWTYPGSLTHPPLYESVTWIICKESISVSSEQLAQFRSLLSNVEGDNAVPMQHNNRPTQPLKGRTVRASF
Experimental: as §1, §2

[3] = target: hCA II (Homo sapiens, UniProt P00918); experiment: CA activation, stopped-flow CO2 hydrase assay; format: biochemical; settings: for KA ratio [hCA II/hCA VII]: KA ratio for the indicated enzyme isoforms, value in square brackets; for KA hCA II: activation constant, mean from 3 assays, errors ±5–10%
Experimental: as §1, §2

[4] = target: hCA VA (Homo sapiens, UniProt P35218); experiment: CA activation, stopped-flow CO2 hydrase assay; format: biochemical; settings: for KA ratio [hCA VA/hCA VII]: KA ratio for the indicated enzyme isoforms, value in square brackets; for KA hCA VA: activation constant, mean from 3 assays, errors ±5–10%; for hCA VA activation, judged in words: text comment on KA values
Chain of hCA VA (P35218 39-305): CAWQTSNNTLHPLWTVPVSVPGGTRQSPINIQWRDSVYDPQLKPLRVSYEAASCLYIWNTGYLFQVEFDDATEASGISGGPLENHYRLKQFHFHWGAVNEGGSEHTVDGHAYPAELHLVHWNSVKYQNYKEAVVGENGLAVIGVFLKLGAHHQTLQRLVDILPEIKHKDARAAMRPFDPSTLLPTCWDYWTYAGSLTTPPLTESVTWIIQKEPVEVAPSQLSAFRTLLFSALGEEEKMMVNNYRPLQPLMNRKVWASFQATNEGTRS
Experimental: as §1, §2

[5] = system: BDNF release from C20 human microglial cells; experiment: BDNF enzyme-linked immunosorbent assay on conditioned medium; format: cell-based; settings: 10 µM, 2 h treatment, medium collected after 24 h, ELISA, normalised on crystal violet
Experimental: All materials for cell culturing were obtained by Corning, New York, USA, and all used reagents were purchased by Sigma-Aldrich (Saint Louis, MO, USA). The human microglial cell line C20, originally generated by David Alvarez-Carbonell et al.[52], was grown in DMEM-F12 medium supplemented with 10% of FBS, 100 U/mL penicillin, 0.1 mg/mL streptomycin, and neomycin (600 μg/mL), as a selector of the immortalised telomerase-expressing cells. Cells were kept at 37 °C under a humidified atmosphere with […] and 5% CO2. Viable cells (identified by counting trypan-blue-excluding cellular elements) were plated at a density of 100,000 cells each well in a 24-well plate. […]
C20 cells were seeded in 24-well microplates at a density of 100,000 cells/well and maintained in complete culture media. […] At the end of the 24 h, the levels of BDNF were measured in the C20 conditioned medium using an enzyme-linked immunosorbent assay (ELISA) Kit (SEA011Mi 96 Tests, Cloude-Clone Corp., CCC, USA), accordingly to manufacture instructions. […] The enzyme-substrate reaction was terminated by the addition of sulphuric acid solution and the colour change was measured spectrophotometrically at a wavelength of 450 nm ± 10 nm. The concentration of BDNF in the samples was then determined by comparing the O.D. of the samples to the standard curve. […]

[6] = system: C20 human microglial cell line; experiment: Cell viability (MTS) assay; format: cell-based; settings: 24 h; for Cell viability of C20 cells: highest tested concentration (10 µM), vs vehicle (DMSO) control
Experimental: All materials for cell culturing were obtained by Corning, New York, USA, and all used reagents were purchased by Sigma-Aldrich (Saint Louis, MO, USA). The human microglial cell line C20, originally generated by David Alvarez-Carbonell et al.[52], was grown in DMEM-F12 medium supplemented with 10% of FBS, 100 U/mL penicillin, 0.1 mg/mL streptomycin, and neomycin (600 μg/mL), as a selector of the immortalised telomerase-expressing cells. Cells were kept at 37 °C under a humidified atmosphere with […] and 5% CO2. Viable cells (identified by counting trypan-blue-excluding cellular elements) were plated at a density of 100,000 cells each well in a 24-well plate. To evaluate the ability of target compounds to modulate the cellular viability and brain-derived neurotrophic factor (BDNF) release, C20 cells were challenged with CAAs.
C20 cells were seeded in 96-well microplates at a density of 5000 cells/well and maintained in complete culture media. The day after the seed, cells were treated with CAAs 7, 8, and 9 for 24 h (1 and 10 µM). The cell viability was determined using the [3–(4,5-dimethylthiazol-2-yl)-5–(3-carboxymethoxyphenol)-2–(4-sulfophenyl)-2H-tetrazolium, inner salt] (MTS) assay according to the manufacturer’s instructions (Promega, Milano, Italy). This tetrazolium dye can be reduced by the metabolic reducing agents NADH and NADPH to a water-soluble formazan salt. The amount of formazan produced is considered to be a marker of cell viability. The MTS reagent was added to treated C20 cells and the colorimetric conversion of formazane was quantified after 1 h by measuring the absorbance at 490 nm (EnSightTM multimode plate reader, equipped with Kaleido Data Acquisition and Analysis Software).

Chain of hCA VII (P43166 whole entry): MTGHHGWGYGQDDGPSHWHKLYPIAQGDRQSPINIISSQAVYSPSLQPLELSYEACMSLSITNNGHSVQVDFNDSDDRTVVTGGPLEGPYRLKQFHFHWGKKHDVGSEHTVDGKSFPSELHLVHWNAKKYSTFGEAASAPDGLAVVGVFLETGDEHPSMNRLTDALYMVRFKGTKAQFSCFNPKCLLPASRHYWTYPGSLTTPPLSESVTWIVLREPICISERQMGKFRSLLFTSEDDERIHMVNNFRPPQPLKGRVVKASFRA

SMILES: CN(C)CCCNC(=O)C(=O)c1cn(Cc2ccccc2)c2ccc(OCCO)cc12 [Compound 1, 2-(5-(2-Hydroxyethoxy)-1-benzyl-1H-indol-3-yl)-N-(3-(dimethylamino)propyl)glyoxylamide]
- KA hCA VII [1]: 10.8 µM
- KA hCA I [2]: > 100 µM
- KA ratio [hCA II/hCA VII] [3]: > 9.3
- KA hCA II [3]: > 100 µM
- KA ratio [hCA VA/hCA VII] [4]: 2.3
- KA hCA VA [4]: 25.0 µM

SMILES: CCN(CC)CCNC(=O)C(=O)c1cn(Cc2ccccc2)c2ccc(OCCO)cc12 [Compound 2, 2-(5-(2-Hydroxyethoxy)-1-benzyl-1H-indol-3-yl)-N-(2-(diethylamino)ethyl)glyoxylamide]
- KA hCA VII [1]: 10.0 µM
- KA hCA I [2]: 88.9 µM
- KA ratio [hCA II/hCA VII] [3]: > 10.0
- KA hCA II [3]: > 100 µM
- KA ratio [hCA VA/hCA VII] [4]: 2.9
- KA hCA VA [4]: 28.7 µM

SMILES: CN(C)CCCOc1ccc2c(c1)c(C(=O)C(=O)NCCCO)cn2Cc1ccccc1 [Compound 3, 2-(5-(3-(Dimethylamino)propoxy)-1-benzyl-1H-indol-3-yl)-N-(3-hydroxypropyl)glyoxamide]
- KA hCA VII [1]: 10.6 µM
- KA hCA I [2]: > 100 µM
- KA ratio [hCA II/hCA VII] [3]: > 9.4
- KA hCA II [3]: > 100 µM
- KA ratio [hCA VA/hCA VII] [4]: 4.8
- KA hCA VA [4]: 50.9 µM
- hCA VA activation, judged in words [4]: poor activity
- melting point: 111 to 113 °C

SMILES: CCN(CC)CCOc1ccc2c(c1)c(C(=O)C(=O)NCCO)cn2Cc1ccccc1 [Compound 4, 2-(5-(2-(Diethylamino)ethoxy)-1-benzyl-1H-indol-3-yl)-N-(2-hydroxyethyl)glyoxamide]
- KA hCA VII [1]: 9.1 µM
- KA hCA I [2]: > 100 µM
- KA ratio [hCA II/hCA VII] [3]: > 11.0
- KA hCA II [3]: > 100 µM
- KA ratio [hCA VA/hCA VII] [4]: 3.8
- KA hCA VA [4]: 34.4 µM
- melting point: 116 to 118 °C

SMILES: CN(C)CCCOc1ccc2c(c1)c(C(=O)NCCO)cn2Cc1ccccc1 [Compound 5, 5-(3-(Dimethylamino)propoxy)-1-benzyl-N-(2-hydroxyethyl)-1H-indole-3-carboxamide]
- KA hCA VII [1]: 10.4 µM
- KA hCA I [2]: > 100 µM
- KA ratio [hCA II/hCA VII] [3]: > 9.6
- KA hCA II [3]: > 100 µM
- KA ratio [hCA VA/hCA VII] [4]: 2.7
- KA hCA VA [4]: 28.0 µM

SMILES: CN(C)CCOc1ccc2c(c1)c(C(=O)NCCO)cn2Cc1ccccc1 [Compound 6, 5-(2-(Dimethylamino)ethoxy)-1-benzyl-N-(2-hydroxyethyl)-1H-indole-3-carboxamide]
- KA hCA VII [1]: 10.7 µM
- KA hCA I [2]: > 100 µM
- KA ratio [hCA II/hCA VII] [3]: > 9.3
- KA hCA II [3]: > 100 µM
- KA ratio [hCA VA/hCA VII] [4]: 2.5
- KA hCA VA [4]: 26.8 µM

SMILES: CCN(CC)CCOc1ccc2c(c1)c(C(=O)NCc1ccccc1)cn2Cc1ccccc1 [Compound 7, 5-(2-(Diethylamino)ethoxy)-N,1-dibenzyl-1H-indole-3-carboxamide]
- BDNF levels in medium of C20 cells [5]: significant increase in BDNF levels
- Cytotoxic activity on C20 cells ([6]; 1 and 10 µM, any of the tested concentrations): did not exhibit cytotoxic activity
- Cell viability of C20 cells [6]: a little increase in cell viability
- KA hCA VII [1]: 7.5 µM
- KA hCA I [2]: > 100 µM
- KA ratio [hCA II/hCA VII] [3]: > 13.3
- KA hCA II [3]: > 100 µM
- KA ratio [hCA VA/hCA VII] [4]: 3.2
- KA hCA VA [4]: 24.4 µM
- melting point: 57 to 59 °C

SMILES: CCOC(=O)c1cn(Cc2ccccc2)c2ccc(OCCCN(C)C)cc12 [Compound 8, Ethyl 5-(3-(dimethylamino)propoxy)-1-benzyl-1H-indole-3-carboxylate]
- Cell viability of C20 cells [6]: slight, although not statistically significant, reduction in cell viability
- KA hCA VII [1]: 7.2 µM
- KA hCA I [2]: 69.1 µM
- KA ratio [hCA II/hCA VII] [3]: > 13.9
- KA hCA II [3]: > 100 µM
- KA ratio [hCA VA/hCA VII] [4]: 8.3
- KA hCA VA [4]: 59.8 µM
- hCA VA activation, judged in words [4]: poor activity
- melting point: 58 to 60 °C

SMILES: CCOC(=O)c1cn(Cc2ccccc2)c2ccc(OCCN(C)C)cc12 [Compound 9, Ethyl 5-(2-(dimethylamino)ethoxy)-1-benzyl-1H-indole-3-carboxylate]
- Cell viability of C20 cells [6]: slight, although not statistically significant, reduction in cell viability
- KA hCA VII [1]: 8.2 µM
- KA hCA I [2]: > 100 µM
- KA ratio [hCA II/hCA VII] [3]: > 12.2
- KA hCA II [3]: > 100 µM
- KA ratio [hCA VA/hCA VII] [4]: 3.5
- KA hCA VA [4]: 29.1 µM
- melting point: 69 to 71 °C

SMILES: NCCc1c[nH]cn1 [Histamine, reference compound]
- KA hCA VII [1]: 37.5 µM
- KA hCA I [2]: 2.1 µM
- KA hCA II [3]: 125 µM
- KA hCA VA [4]: 0.010 µM
